# Measurements taken from PubChem BioAssay (NCI).
#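 Assay format: 96-well plates, 48-hour exposure. GI50 marks 50% less growth. TGI is the concentration that stops growth completely.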 Where a SMILES comes first, the peptide text is derived from it. The star is where a group is joined. Fmoc = O=C(OCC1c2ccccc2-c2ccccc21)*; Boc = CC(C)(C)OC(=O)*
# How the values were obtained:
# Assay in all cases: DTP human tumour cell line panel, 48 h
# [1] = tested on: BT-549 breast
# [2] = tested on: CCRF-CEM leukemia
# [3] = tested on: HCC-2998 colon
# [4] = tested on: HL-60(TB) leukemia
# [5] = tested on: OVCAR-8 ovarian
# [6] = tested on: PC-3 prostate
# [7] = tested on: SK-OV-3 ovarian
# [8] = tested on: SN12C renal
# [9] = tested on: T-47D breast
Structure (SMILES),TGI [1] [µM],TGI [2] [µM],TGI [3] [µM],TGI [4] [µM],TGI [5] [µM],TGI [6] [µM],TGI [7] [µM],TGI [8] [µM],TGI [9] [µM],GI50 [1] [µM],GI50 [2] [µM],GI50 [3] [µM],GI50 [4] [µM],GI50 [5] [µM],GI50 [6] [µM],GI50 [7] [µM],GI50 [8] [µM],GI50 [9] [µM]
N#Cc1c(Nc2ccccc2)[n+]([O-])c2ccc(Cl)cc2[n+]1[O-],14.9,> 27.2,15.2,12.1,10.7,> 100,> 100,> 100,> 100,,,,,,,,,
CC(=O)c1cccc(NC(=O)/C(=N\NC(=S)NN)C2C(=O)Nc3ccccc3S2=O)c1 (configuration not stated),> 100,> 100,,> 100,> 100,> 100,> 100,> 100,> 100,,,,,,,,,
COc1ccc(-c2c(C#N)cnc(N)c2-c2nc3cc(C)c(C)cc3[nH]2)cc1,> 100,> 100,> 100,> 100,26.8,> 100,18.4,> 100,> 100,30.6,25.6,11,83.6,5.2,8.86,4.84,25.4,15.4
O=C(CSCC(=O)N/N=C/c1ccncc1)N/N=C/c1ccncc1,> 100,> 100,> 100,> 100,> 100,> 100,> 100,> 100,> 100,,,,,,,,,
CC(C)C(=O)CP(=O)(O)O,> 100,> 100,,> 100,> 100,> 100,> 100,> 100,> 100,,,,,,,,,
O=C1Cc2c([nH]c3cc(Br)ccc23)-c2ccccc2N1,46.9,20.2,,> 100,73.9,44.3,58.8,76.4,84.1,,,,,,,,,
Cc1c(C=C(C#N)C#N)c(=O)n(C)c(=O)n1C,> 100,94.8,,> 100,> 100,> 100,> 100,> 100,> 100,,,,,,,,,
O=C(NC(Cc1ccccc1)P(=O)(O)c1ccccc1)OCc1ccccc1 (configuration not stated),> 100,> 100,,> 100,> 100,> 100,> 100,> 100,> 100,,,,,,,,,
C=C(C)COC(=O)COCC(=O)OCC(=C)C,> 100,> 100,> 100,,> 100,> 100,> 100,> 100,> 100,,,,,,,,,
O=C(N1CCN(c2ccccc2)CC1)N(C(=O)C1(c2ccc(Cl)cc2)CCCC1)S(=O)(=O)c1ccccc1,80.2,> 100,58.5,68.1,89.4,76.1,82.9,94.6,> 100,,,,,,,,,
S=c1sscc1N1CCSc2ssc(=S)c21,> 100,> 100,> 100,> 100,18.9,> 100,,> 100,> 100,,,,,,,,,
COC(=O)c1c(OC(C)=O)ccc2c1c1cc3ccccc3c(OC(C)=O)c1n2C,81.1,> 100,91.7,> 100,> 100,> 100,55.2,> 100,39.8,,,,,,,,,
O=c1ccc2nc3ccc(O)cc3oc-2c1,44,> 100,> 100,25.4,> 100,> 100,> 100,> 100,> 100,,,,,,,,,
COc1ccc(NC(C)=O)cc1N1C(=O)/C(=C\c2cccc(Oc3ccccc3)c2)SC1c1ccccc1 (configuration not stated),> 100,67.2,> 100,37.9,64.8,> 100,> 100,64.6,> 100,,,,,,,,,
CCOC(=O)c1c[nH]c2cc3c(cc2c1=O)CCS3,> 100,> 100,> 100,> 100,> 100,> 100,> 100,> 100,> 100,,,,,,,,,
Fc1ccc(C(OCCN2CCC3CCC(C2)N3C/C=C/c2cccnc2)c2ccc(F)cc2)cc1 (configuration not stated),26.4,17.5,15.6,,25.9,21.8,29.3,26.2,31,,,,,,,,,
Cc1ccc(S(=O)(=O)NC(=O)NCC(=O)O)cc1,> 100,> 100,,> 100,> 100,> 100,> 100,> 100,> 100,,,,,,,,,
C[Si](C)(C)C#CCOC=C1CC1,> 100,> 100,> 100,> 100,> 100,> 100,> 100,> 100,> 100,,,,,,,,,
NC1=CN(Cc2ccccc2)C2=N/C(=C\c3ccco3)C(=O)N12,> 100,> 100,> 100,> 100,> 100,> 100,> 100,> 100,> 100,,,,,,,,,
CSc1nc(Cl)c2c(n1)Sc1nc3ccccc3n1N=C2,43.3,46.2,60.9,,36.4,48,> 100,> 100,57.2,,,,,,,,,
Cc1ccc(C)c(C(=N)c2ccccc2Cc2ccccc2)c1,83.7,,31.7,43.6,> 100,> 100,79.1,32.2,80.6,,,,,,,,,
Nc1c(O)c(C(=O)O)cc2ccccc12,60.3,> 100,> 100,> 100,> 100,> 100,> 100,> 100,> 100,,,,,,,,,
Cc1cc(C)nc(NS(=O)(=O)c2ccc(NC(=O)c3ccc4nc5ccccc5c(Nc5ccc(S(=O)(=O)Nc6nc(C)cc(C)n6)cc5)c4c3)cc2)n1,69.7,> 100,> 100,79.1,> 100,> 100,> 100,> 100,> 100,,,,,,,,,

Structure (SMILES),TGI [1] [µM],TGI [2] [µM],TGI [3] [µM],TGI [4] [µM],TGI [5] [µM],TGI [6] [µM],TGI [7] [µM],TGI [8] [µM],TGI [9] [µM],GI50 [1] [µM],GI50 [2] [µM],GI50 [3] [µM],GI50 [4] [µM],GI50 [5] [µM],GI50 [6] [µM],GI50 [7] [µM],GI50 [8] [µM],GI50 [9] [µM]
COc1ccccc1NC1=NCC(C)S1 (configuration not stated),> 100,> 100,> 100,> 100,> 100,> 100,> 100,> 100,> 100,,,,,,,,,
Cc1ccc2c(c1)C/C(=C\c1ccccc1C(=O)O)C2=O,> 100,> 100,> 100,> 100,> 100,> 100,,> 100,> 100,,,,,,,,,
CC(=O)NC1=CC(=O)C=C(Cl)C1=O,> 100,57.8,> 100,45.7,> 100,> 100,> 100,> 100,> 100,,,,,,,,,
CC(=O)Nc1ccc2c3c(cc(O)c2c1)N(C(=O)CCCCCC(=O)Nc1ccc2c4c(cc(O)c2c1)N(C(=O)OC(C)(C)C)CC4CCl)CC3CCl (configuration not stated),10.9,0.648,3.69,> 36.1,15.2,> 50.2,> 47.6,> 38.3,7.82,,,,,,,,,
C[C@]12CC[C@H]3[C@@H](CCC4=CC(=O)CC[C@@]43C)[C@@H]1CC[C@@H]2OC(=O)c1cccc2c(=O)c3ccccc3[nH]c12,> 100,> 100,> 100,,> 100,> 100,> 100,> 100,> 100,,,,,,,,,
Cc1ccc2nnc(NS(=O)(=O)c3cc(C)c(Cl)cc3S)n2n1,> 100,> 100,> 100,> 100,> 100,> 100,> 100,> 100,> 100,,,,,,,,,
Cc1cn(C2CC(O)C(Cn3nncc3Cn3ccc(=O)[nH]c3=O)O2)c(=O)[nH]c1=O (configuration not stated),> 100,> 100,> 100,> 100,> 100,> 100,> 100,> 100,> 100,,,,,,,,,
COc1cc(C2S/C(=C/c3ccccc3)C(=O)N2c2ccccn2)cc(OC)c1OC (configuration not stated),39,> 100,32.8,> 100,31.2,> 81.7,> 90.6,33.6,36.3,,,,,,,,,
O=c1c2cc([N+](=O)[O-])cnc2sn1-c1ccc(Br)cc1,> 100,66.6,> 100,80.7,> 100,> 100,99,> 100,48.1,,,,,,,,,
CCOC(=O)/C=C1\C[C@H](NC(=O)OCc2ccccc2)C(=O)N1CC(=O)OCC,> 100,> 100,> 100,> 100,> 100,> 100,> 100,> 100,> 100,,,,,,,,,
NNC(=O)CSc1nnc(CCCCCCCCc2nnc(SCC(=O)NN)o2)o1,> 100,> 100,> 100,> 100,> 100,> 100,> 100,> 100,> 100,,,,,,,,,
Nc1ccc2c(c1)S(=O)(=O)c1cc(N)ccc1-2,> 100,,> 100,> 100,> 100,> 100,> 100,> 100,> 100,,,,,,,,,
N#CCCN(CCC#N)c1ccc(/C=C2\N=C(c3ccccc3)N(c3ccccc3)C2=O)cc1,> 100,> 100,,> 100,> 100,> 100,> 100,> 100,> 100,,,,,,,,,
Cn1c2c(c3c(=O)[nH]ncc31)CCCc1ccccc1-2,> 100,> 100,,16.3,83.5,> 100,64,66.3,> 100,,,,,,,,,
COC(=O)C(=O)C(C(=O)C(=O)Nc1nc(=S)[nH][nH]1)c1nc2ccc([N+](=O)[O-])cc2[nH]c1=O (configuration not stated),> 100,> 100,> 100,> 100,> 100,> 100,> 100,> 100,> 100,,,,,,,,,
CN1C(=O)C(O)C[C@@H]1c1ccc(F)cc1 (some centres not stated),> 100,> 100,> 100,> 100,,> 100,> 100,> 100,> 100,,,,,,,,,
CC(C)(C)OC(=O)NCCCCC(NC(=O)C(Cc1c[nH]c2ccccc12)NC(=O)OCC1c2ccccc2-c2ccccc21)C(=O)O (configuration not stated) (Fmoc-Trp-Lys(Boc)-OH; configuration not given here),> 100,61,> 100,34,> 100,> 100,35.6,> 100,> 100,,,,,,,,,
COc1cc(C2SC(N)=Nc3c2c(C)nn3C(=O)c2ccc(Cl)cc2)ccc1O (configuration not stated),> 10,> 10,> 10,> 10,> 10,> 10,> 10,> 10,> 10,,,,,,,,,
COc1ccc(/C=C2\CC3C4CC=C5C[C@@H](O)CC[C@]5(C)C4CC[C@]3(C)C2=O)cc1OC (some centres not stated),> 100,> 100,> 100,> 100,> 100,> 100,> 100,> 100,> 100,,,,,,,,,
CCOC(=O)c1c(CN2CCOCC2)n(Cc2ccccc2)c2c1cc(O)c1nc(C)c(C)nc12,34,> 100,> 100,> 100,53.4,92.4,> 100,> 100,> 100,,,,,,,,,
O=C(O)CCCN=C(C(=NCCCC(=O)O)c1ccccc1)c1ccccc1,> 100,,> 100,,> 100,> 100,> 100,> 100,> 100,,,,,,,,,
CC(C)(C)c1cc2c(O)c(c1)COCc1cc(C(C)(C)C)cc(c1O)COCc1cc(C(C)(C)C)cc(c1O)COC2,> 100,> 100,> 100,> 100,> 100,> 100,> 100,,> 100,,,,,,,,,
CCCNC(=O)c1cc(NC(=O)c2cc(NC(=O)CCS(=O)(=O)OC)cn2C)cn1C,8.54,3.67,> 100,,30.3,98.9,22.8,29.7,42.1,,,,,,,,,
